These are literature values, as cited in patent US20050032782A1, “Treatment of chronic pain associated with drug or radiation therapy” (Cypress Bioscience, Inc., priority 2003, published 2005).

For the data set, the target named is NMDA receptor. Particulars: reported by Shuto et al.; read-out: IC50 value, NMDA receptor antagonistic properties.

Usually IC50 stands for the point on the concentration scale where inhibition reaches its midpoint. As to `CCN(CC)C(=O)C1(c2ccccc2)CC1CN` (stereo not shown) [milnacipran], the IC50 is approximately 6.3 µM.
